Experimental data published in patent US9198913B2, “Nitroimidazooxazines and their uses in anti-tubercular therapy” (priority 2009, dated 2015).
Values after ≈ are worked out from the molar mass of the structure shown.

How the values were obtained:
[1] = In vivo pharmacokinetics in mice; conditions: CD-1 mice, oral, 40 mg/kg; for Cmax / half-life / Kp: mouse; for Cmax / half-life: in vivo, plasma; for half-life: read-out: t½ (h) plasma (converted); for Kp: lung/plasma, read-out: AUC ratio (lung/plasma);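 as to all read-outs here: plasma and lung samples quantified by LC-MS/MS, dosing as a suspension in aqueous carboxymethylcellulose with Tween 80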
[2] = Stability to human liver microsomes; assay type: in vitro ADME; conditions: 1 μM, 37° C., 60 min, pooled human liver microsomes;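 also: parent compound quantified by LC-MS/MS against an internal standard, duplicates averaged, expressed relative to the 0 min sample taken as 100%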
[3] = Stability to mouse liver microsomes; assay type: in vitro ADME; conditions: 1 μM, 37° C., 60 min, CD-1 mouse liver microsomes;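 also: analyte quantified by LC-MS/MS as ratio to internal standard peak area, mean of duplicates, 60 min value expressed relative to the 0 min level (100%)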
[4] = Water solubility (sonicated suspension, HPLC); assay type: physicochemical; conditions: in water; for solubility at 15 min: thermodynamic from solid;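 as to all read-outs here: concentration in the clear supernatant quantified by HPLC peak area against a DMSO standard solution of the same compound, corrected for dilution and injection volume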

| Compound | melting point [°C] | AUC lung [1] [µg·h/mL] | Cmax [1] [ng/mL] | half-life [1] [h] | Kp [1] | Microsomes (% remaining, 1 h) Human [2] [%] | Microsomes (% remaining, 1 h) Mouse [3] [%] | solubility at 15 min [4] [µg/mL] | Solubility [4] [µg/mL] |
| --- | --- | --- | --- | --- | --- | --- | --- | --- | --- |
| O=[N+]([O-])c1cn2c(n1)OC[C@@H](OCc1ccc(-c3ccc(F)cc3)nc1)C2 (hydrate or solvate) [Compound 5, (6S)-6-{[6-(4-Fluorophenyl)-3-pyridinyl]methoxy}-2-nitro-6,7-dihydro-5H-imidazo[2,1-b][1,3]oxazine] | 194 to 196 |  |  |  |  |  |  |  |  |
| O=[N+]([O-])c1cn2c(n1)OC[C@@H](OCc1ccc(-c3ccc(OC(F)(F)F)cc3Cl)cc1)C2 [Compound 1, (6S)-6-{[2′-Chloro-4′-(trifluoromethoxy)[1,1′-biphenyl]-4-yl]methoxy}-2-nitro-6,7-dihydro-5H-imidazo[2,1-b][1,3]oxazine] | 80 to 82 | 3363 | 6800 | 19.9 | 17 | 91 | 86 | 0.66 (≈ 1.4 µM) |  |
| O=[N+]([O-])c1cn2c(n1)OC[C@@H](OCc1ccc(-c3ccc(OC(F)(F)F)cc3)cc1)C2 [Compound 3, (6S)-2-Nitro-6-{[4′-(trifluoromethoxy)[1,1′-biphenyl]-4-yl]methoxy}-6,7-dihydro-5H-imidazo[2,1-b][1,3]oxazine] | 199 to 201 | 218 |  |  |  |  |  |  |  |
| O=[N+]([O-])c1cn2c(n1)OC[C@@H](OCc1cnc(-c3ccc(OC(F)(F)F)cc3)cn1)C2 [Compound 4, (6S)-2-Nitro-6-({5-[4-(trifluoromethoxy)phenyl]-2-pyrazinyl}methoxy)-6,7-dihydro-5H-imidazo[2,1-b][1,3]oxazine] | 182 to 184 | >324 |  |  |  | 98 |  |  | 2.6 (≈ 5.95 µM) |
| O=[N+]([O-])c1cn2c(n1)OC[C@@H](OCc1ccc(-c3ccc(F)cc3)nc1)C2 [Compound 5, (6S)-6-{[6-(4-Fluorophenyl)-3-pyridinyl]methoxy}-2-nitro-6,7-dihydro-5H-imidazo[2,1-b][1,3]oxazine] |  | 136 |  |  |  | 88 | 80 |  | 3.8 (≈ 10.3 µM) |
| O=[N+]([O-])c1cn2c(n1)OC[C@@H](OCc1ccc(-c3ccc(OC(F)(F)F)cc3)nc1)C2 [Compound 6, (6S)-2-Nitro-6-({6-[4-(trifluoromethoxy)phenyl]-3-pyridinyl}methoxy)-6,7-dihydro-5H-imidazo[2,1-b][1,3]oxazine] |  | 81 | 12200 |  |  | 83 | 87 |  | 2.3 (≈ 5.27 µM) |
| O=[N+]([O-])c1cn2c(n1)OC[C@@H](OCc1ccc(-c3ccc(OC(F)(F)F)cc3)cn1)C2 [Compound 7, (6S)-2-Nitro-6-({5-[4-(trifluoromethoxy)phenyl]-2-pyridinyl}methoxy)-6,7-dihydro-5H-imidazo[2,1-b][1,3]oxazine] | 157 to 159 | 427 | 25900 |  |  |  |  |  |  |
| O=[N+]([O-])c1cn2c(n1)OC[C@@H](OCc1ccc(-c3ccc(C(F)(F)F)nc3)cc1)C2 [Compound 9, (6S)-2-Nitro-6-({4-[6-(trifluoromethyl)-3-pyridinyl]benzyl}oxy)-6,7-dihydro-5H-imidazo[2,1-b][1,3]oxazine] | 221 to 222 | 414 | 13500 |  | 1.9 | 86 |  |  | 1.0 (≈ 2.38 µM) |
| O=[N+]([O-])c1cn2c(n1)OC[C@@H](OCc1ccn(-c3ccc(OC(F)(F)F)cc3)n1)C2 [Compound 10, (6S)-2-Nitro-6-({1-[4-(trifluoromethoxy)phenyl]-1H-pyrazol-3-yl}methoxy)-6,7-dihydro-5H-imidazo[2,1-b][1,3]oxazine] | 103 to 105 | 31.5 | 1510 | 2.4 | 3.5 | 87 | 67 |  |  |
| O=[N+]([O-])c1cn2c(n1)OC[C@@H](Oc1ccc(-c3ccc(OC(F)(F)F)cc3)cc1)C2 [Compound 13, (6S)-2-Nitro-6-{[4′-(trifluoromethoxy)[1,1′-biphenyl]-4-yl]oxy}-6,7-dihydro-5H-imidazo[2,1-b][1,3]oxazine] | 210 | 347 |  | 38 | 3.4 |  |  | 3 (≈ 7.12 µM) |  |
| O=[N+]([O-])c1cn2c(n1)OC[C@@H](OCc1ccc(-c3ccc(OC(F)(F)F)cc3)c(F)c1)C2 [Compound 15, (6S)-6-{[2-Fluoro-4′-(trifluoromethoxy)[1,1′-biphenyl]-4-yl]methoxy}-2-nitro-6,7-dihydro-5H-imidazo[2,1-b][1,3]oxazine] | 181 to 183 |  |  |  |  |  |  | 0.33 (≈ 0.728 µM) |  |
| O=[N+]([O-])c1cn2c(n1)OC[C@@H](OCc1ccc(Cc3ccc(OC(F)(F)F)cc3)cc1)C2 [Compound 17, (6S)-2-Nitro-6-({4-[4-(trifluoromethoxy)benzyl]benzyl}oxy)-6,7-dihydro-5H-imidazo[2,1-b][1,3]oxazine] | 132 to 133 |  |  |  |  | 85 | 70 | 0.16 (≈ 0.356 µM) |  |
| O=[N+]([O-])c1cn2c(n1)OC[C@@H](OCc1ccc(C#Cc3ccc(OC(F)(F)F)cc3)cn1)C2 [Compound 18, (6S)-2-Nitro-6-[(5-{[4-(trifluoromethoxy)phenyl]ethynyl}-2-pyridinyl)methoxy]-6,7-dihydro-5H-imidazo[2,1-b][1,3]oxazine] | 207 to 208 | 235 | 2360 | 23.5 | 2.5 |  |  | 0.36 (≈ 0.782 µM) |  |
| O=[N+]([O-])c1cn2c(n1)OC[C@@H](OC/C=C/c1ccc(-c3ccc(OC(F)(F)F)cc3)cc1)C2 [Compound 19, (6S)-2-Nitro-6-({(2E)-3-[4′-(trifluoromethoxy)[1,1′-biphenyl]-4-yl]-2-propenyl}oxy)-6,7-dihydro-5H-imidazo[2,1-b][1,3]oxazine] | 220 to 221 |  |  |  |  | 100 | 95 |  | 0.50 (≈ 1.08 µM) |
| O=[N+]([O-])c1cn2c(n1)OC[C@@H](OCc1ccc(-c3ccc(OC(F)(F)F)c(F)c3)nc1)C2 [Compound 21, (6S)-6-({6-[3-Fluoro-4-(trifluoromethoxy)phenyl]-3-pyridinyl}methoxy)-2-nitro-6,7-dihydro-5H-imidazo[2,1-b][1,3]oxazine] |  | 251 |  | 13.9 | 1.4 | 100 | 90 |  | 3.0 (≈ 6.6 µM) |
| O=[N+]([O-])c1cn2c(n1)OC[C@@H](OCc1ccc(C#Cc3ccc(C(F)(F)F)nc3)cn1)C2 [Compound 25, (6S)-2-Nitro-6-[(5-{[6-(trifluoromethyl)-3-pyridinyl]ethynyl}-2-pyridinyl)methoxy]-6,7-dihydro-5H-imidazo[2,1-b][1,3]oxazine] | 226 to 227 |  |  |  |  | 88 | 91 |  |  |
| O=[N+]([O-])c1cn2c(n1)OC[C@@H](OCc1ccc(-c3ccc(F)cn3)cc1)C2 [Compound 26, (6S)-6-{[4-(5-Fluoro-2-pyridinyl)benzyl]oxy}-2-nitro-6,7-dihydro-5H-imidazo[2,1-b][1,3]oxazine] | 180 to 181 |  |  |  |  | 83 | 61 |  | 67 (≈ 181 µM) |
| O=[N+]([O-])c1cn2c(n1)OC[C@@H](OCc1cnn(-c3ccc(OC(F)(F)F)cc3)c1)C2 [Compound 27, (6S)-2-Nitro-6-({1-[4-(trifluoromethoxy)phenyl]-1H-pyrazol-4-yl}methoxy)-6,7-dihydro-5H-imidazo[2,1-b][1,3]oxazine] | 150 to 151 |  |  |  |  | 87 | 64 |  |  |
| O=[N+]([O-])c1cn2c(n1)OC[C@@H](OCc1ncc(-c3ccc(OC(F)(F)F)cc3)cn1)C2 [Compound 29, (6S)-2-Nitro-6-({5-[4-(trifluoromethoxy)phenyl]-2-pyrimidinyl}methoxy)-6,7-dihydro-5H-imidazo[2,1-b][1,3]oxazine] | 223 to 226 |  |  |  |  | 92 | 87 |  | 8.1 (≈ 18.5 µM) |
| O=[N+]([O-])c1cn2c(n1)OC[C@@H](OCc1ccc(/C=C/c3ccc(OC(F)(F)F)cc3)cc1)C2 [Compound 31, (6S)-2-Nitro-6-[(4-{(E)-2-[4-(trifluoromethoxy)phenyl]ethenyl}benzyl)oxy]-6,7-dihydro-5H-imidazo[2,1-b][1,3]oxazine] | 228 to 230 |  |  |  |  | 99 | 98 |  |  |
| O=[N+]([O-])c1cn2c(n1)OC[C@@H](OCc1ccc(C#Cc3ccc(OC(F)(F)F)cc3)cc1)C2 [Compound 32, (6S)-2-Nitro-6-[(4-{[4-(trifluoromethoxy)phenyl]ethynyl}benzyl)oxy]-6,7-dihydro-5H-imidazo[2,1-b][1,3]oxazine] | 233 to 236 |  |  |  |  |  |  |  |  |
| O=[N+]([O-])c1cn2c(n1)OC[C@@H](OCc1ccc(C#Cc3ccc(OC(F)(F)F)cc3)nc1)C2 [Compound 33, (6S)-2-Nitro-6-[(6-{[4-(trifluoromethoxy)phenyl]ethynyl}-3-pyridinyl)methoxy]-6,7-dihydro-5H-imidazo[2,1-b][1,3]oxazine] | 235 to 238 |  |  |  |  |  |  |  |  |
